From patent publication US20250282785A1, “PYRROLIDINONE DERIVATIVES AS INHIBITORS OF NF KAPPA B INDUCING KINASE” (priority 2022, published 2025)

Assays:
[1] = system: p-IKKα levels in L363 (NIK translocated multiple myeloma) cells; assay: Effect of compounds on p-IKKα levels in L363 cells (AlphaLISA SureFire Ultra); assay type: cell-based; details: Homo sapiens, L-363; L363 cells, BAFF stimulated, MG132, 6 h; average of values; read-out: Assay 2 IC50
Outline: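 Phospho-IKKα (Ser 176/180) was quantified by AlphaLISA in lysed L363 cells after 6 h compound exposure (0.3% DMSO, 11 points, 1:3) alongside 250 ng/ml BAFF and 10 uM MG132, following overnight BAFF priming in low-serum DMEM. Duplicate curves were scaled between BAFF/DMSO/MG132 and unstimulated DMSO wells, then fitted sigmoidally for IC50.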

[2] = target: Recombinant Human NF-Kappab-Inducing Kinase (NIK/MAP3K14) (Homo sapiens, UniProt Q99558); assay: Inhibition of auto-phosphorylation of recombinant human NIK/MAP3K14 (AlphaScreen); assay type: biochemical; details: NIK/MAP3K14 auto-phosphorylation, 5 microM ATP, 1 nM enzyme, 2 h at 25° C.; average of values; read-out: Assay 1 IC50
Recombinant Human NF-Kappab-Inducing Kinase (NIK/MAP3K14), sequence (Q99558 whole entry): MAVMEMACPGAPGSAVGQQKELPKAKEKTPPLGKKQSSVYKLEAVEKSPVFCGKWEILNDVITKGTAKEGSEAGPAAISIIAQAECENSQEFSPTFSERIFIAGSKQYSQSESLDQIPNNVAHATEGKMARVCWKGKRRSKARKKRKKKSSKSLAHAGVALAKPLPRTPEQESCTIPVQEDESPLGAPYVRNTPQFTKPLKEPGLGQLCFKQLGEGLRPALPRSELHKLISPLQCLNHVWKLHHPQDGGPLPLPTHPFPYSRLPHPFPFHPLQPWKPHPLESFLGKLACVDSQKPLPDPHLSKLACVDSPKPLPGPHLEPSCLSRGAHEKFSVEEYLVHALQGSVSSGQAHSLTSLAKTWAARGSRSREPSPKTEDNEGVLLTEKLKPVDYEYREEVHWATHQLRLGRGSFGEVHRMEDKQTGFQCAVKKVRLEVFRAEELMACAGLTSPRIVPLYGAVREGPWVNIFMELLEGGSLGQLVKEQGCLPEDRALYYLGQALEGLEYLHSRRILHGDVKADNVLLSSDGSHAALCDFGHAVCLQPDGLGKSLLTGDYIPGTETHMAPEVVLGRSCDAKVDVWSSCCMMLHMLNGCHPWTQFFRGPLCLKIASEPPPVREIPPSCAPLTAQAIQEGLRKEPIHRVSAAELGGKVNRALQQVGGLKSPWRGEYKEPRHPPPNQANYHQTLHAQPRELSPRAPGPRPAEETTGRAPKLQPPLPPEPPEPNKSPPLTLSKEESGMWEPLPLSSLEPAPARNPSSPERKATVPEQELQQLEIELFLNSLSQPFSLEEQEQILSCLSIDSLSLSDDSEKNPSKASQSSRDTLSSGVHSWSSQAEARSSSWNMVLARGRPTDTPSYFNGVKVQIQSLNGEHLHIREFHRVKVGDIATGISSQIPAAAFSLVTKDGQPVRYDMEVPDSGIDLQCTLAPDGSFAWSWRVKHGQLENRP
Outline: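 AlphaScreen read-out used anti-phospho-IKK Ser176/180 antibody after 2 h, 25 °C incubation of compound, 1 nM GST-NIK and 5 µM ATP (final DMSO 0.7%). Percent inhibition referenced to high (enzyme) and low (no enzyme, no ATP) controls; sigmoidal curve fitting gave IC50.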

Row | SMILES | IC50 [1] [nM] | IC50 [2] [nM]
1 | Cc1cc(-c2cccc(-c3cc([C@]4(O)CCN(C)C4=O)on3)c2)nc(C(N)=O)c1N [Example 45, (R)-3-Amino-6-(3-(5-(3-hydroxy-1-methyl-2-oxopyrrolidin-3-yl)isoxazol-3-yl)phenyl)-4-methylpicolinamide] | < 100 | < 100
2 | COc1cc(-c2cccc(-c3cc([C@]4(O)CCN(C)C4=O)on3)c2)nc(C(N)=O)c1N [Example 46, (R)-3-Amino-6-(3-(5-(3-hydroxy-1-methyl-2-oxopyrrolidin-3-yl)isoxazol-3-yl)phenyl)-4-methoxypicolinamide] | < 100 | < 100
3 | COc1cc(-c2cccc(-c3cc([C@]4(O)CCN(C)C4=O)on3)c2)cc(C(N)=O)n1 [Example 47, (R)-4-(3-(5-(3-Hydroxy-1-methyl-2-oxopyrrolidin-3-yl)isoxazol-3-yl)phenyl)-6-methoxypicolinamide] | > 501 | > 501
4 | COc1cc(-c2cccc(-c3cc([C@]4(O)CCN(C)C4=O)on3)c2)nc2c1cnn2C [Example 48, (R)-3-Hydroxy-3-(3-(3-(4-methoxy-1-methyl-1H-pyrazolo[3,4-b]pyridin-6-yl)phenyl)isoxazol-5-yl)-1-methylpyrrolidin-2-one] | > 501 | < 100
5 | CN1CC[C@@](O)(c2cc(-c3cccc(-c4ccnc5[nH]ccc45)c3)no2)C1=O [Example 49, (R)-3-(3-(3-(1H-Pyrrolo[2,3-b]pyridin-4-yl)phenyl)isoxazol-5-yl)-3-hydroxy-1-methylpyrrolidin-2-one] | > 501 | < 100
6 | CN1CC[C@@](O)(c2cc(-c3cccc(-c4cc(C(F)(F)F)c(N)c(C(N)=O)n4)c3)no2)C1=O [Example 50, (R)-3-Amino-6-(3-(5-(3-hydroxy-1-methyl-2-oxopyrrolidin-3-yl)isoxazol-3-yl)phenyl)-4-(trifluoromethyl)picolinamide] | < 100 | < 100
7 | CN1CC[C@@](O)(c2cc(-c3cccc(-c4ccc5cncn5c4)c3)no2)C1=O [Example 51, (R)-3-Hydroxy-3-(3-(3-(imidazo[1,5-a]pyridin-6-yl)phenyl)isoxazol-5-yl)-1-methylpyrrolidin-2-one] | > 501 | 100 to 500
8 | CN1CC[C@@](O)(c2cc(-c3cccc(-c4ncnn5cccc45)c3)no2)C1=O [Example 52, (R)-3-Hydroxy-1-methyl-3-(3-(3-(pyrrolo[2,1-f][1,2,4]triazin-4-yl)phenyl)isoxazol-5-yl)pyrrolidin-2-one] | > 501 | 100 to 500
9 | CN1CC[C@@](O)(c2cc(-c3cccc(-c4ccnc(N)c4)c3)no2)C1=O [Example 53, (R)-3-(3-(3-(2-Aminopyridin-4-yl)phenyl)isoxazol-5-yl)-3-hydroxy-1-methylpyrrolidin-2-one] | > 501 | 100 to 500
10 | CC(=O)Nc1cc(-c2cccc(-c3cc([C@]4(O)CCN(C)C4=O)on3)c2)ccn1 [Example 54, (R)—N-(4-(3-(5-(3-Hydroxy-1-methyl-2-oxopyrrolidin-3-yl)isoxazol-3-yl)phenyl)pyridin-2-yl)acetamide] | > 501 | 100 to 500
11 | CCn1ncc2cc(-c3cccc(-c4cc([C@]5(O)CCN(C)C5=O)on4)c3)cnc21 [Example 55, (R)-3-(3-(3-(1-Ethyl-1H-pyrazolo[3,4-b]pyridin-5-yl)phenyl)isoxazol-5-yl)-3-hydroxy-1-methylpyrrolidin-2-one] | > 501 | > 501
12 | CN1CC[C@@](O)(c2cc(-c3cccc(-c4cc5c(o4)CCNC5=O)c3)no2)C1=O [Example 56, (R)-2-(3-(5-(3-hydroxy-1-methyl-2-oxopyrrolidin-3-yl)isoxazol-3-yl)phenyl)-6,7-dihydrofuro[3,2-c]pyridin-4(5H)-one] | > 501 | > 501
13 | Cc1ncn2cc(-c3cccc(-c4cc([C@]5(O)CCN(C)C5=O)on4)c3)ccc12 [Example 57, (R)-3-Hydroxy-1-methyl-3-(3-(3-(1-methylimidazo[1,5-a]pyridin-6-yl)phenyl)isoxazol-5-yl)pyrrolidin-2-one] | > 501 | > 501
14 | CN1CC[C@@](O)(c2cc(-c3cccc(-c4ccn5nccc5c4)c3)no2)C1=O [Example 58, (R)-3-hydroxy-1-methyl-3-(3-(3-(pyrazolo[1,5-a]pyridin-5-yl)phenyl)isoxazol-5-yl)pyrrolidin-2-one] | > 501 | 100 to 500
15 | CN1CC[C@@](O)(c2cc(-c3cccc(-c4cccc5c4CNC5=O)c3)no2)C1=O [Example 59, (R)-4-(3-(5-(3-hydroxy-1-methyl-2-oxopyrrolidin-3-yl)isoxazol-3-yl)phenyl)isoindolin-1-one] | > 501 | > 501
16 | Cc1ncc2cc(-c3cccc(-c4cc([C@]5(O)CCN(C)C5=O)on4)c3)ccn12 [Example 60, (R)-3-hydroxy-1-methyl-3-(3-(3-(3-methylimidazo[1,5-a]pyridin-7-yl)phenyl)isoxazol-5-yl)pyrrolidin-2-one] | > 501 | > 501
17 | CN1CC[C@@](O)(c2cc(-c3cccc(-c4cnc5cnccn45)c3)no2)C1=O [Example 61, (R)-3-Hydroxy-3-(3-(3-(imidazo[1,2-a]pyrazin-3-yl)phenyl)isoxazol-5-yl)-1-methylpyrrolidin-2-one] | > 501 | 100 to 500
18 | CN1CC[C@@](O)(c2cc(-c3cccc(-c4ccc5ncn(C)c5c4)c3)no2)C1=O [Example 62, (R)-3-Hydroxy-1-methyl-3-(3-(3-(1-methyl-1H-benzo[d]imidazol-6-yl)phenyl)isoxazol-5-yl)pyrrolidin-2-one] | > 501 | > 501
19 | Cc1nc2cc(-c3cccc(-c4cc([C@]5(O)CCN(C)C5=O)on4)c3)ccc2o1 [Example 63, (R)-3-Hydroxy-1-methyl-3-(3-(3-(2-methylbenzo[d]oxazol-5-yl)phenyl)isoxazol-5-yl)pyrrolidin-2-one] | > 501 | > 501
20 | CN1CC[C@@](O)(c2cc(-c3cccc(-c4ccn5ncccc45)c3)no2)C1=O [Example 64, (R)-3-Hydroxy-1-methyl-3-(3-(3-(pyrrolo[1,2-b]pyridazin-5-yl)phenyl)isoxazol-5-yl)pyrrolidin-2-one] | > 501 | > 501
21 | Cc1cn2nc(-c3cccc(-c4cc([C@]5(O)CCN(C)C5=O)on4)c3)ccc2n1 [Example 65, (R)-3-Hydroxy-1-methyl-3-(3-(3-(2-methylimidazo[1,2-b]pyridazin-6-yl)phenyl)isoxazol-5-yl)pyrrolidin-2-one] | > 501 | > 501
22 | CN1CC[C@@](O)(c2cc(-c3cccc(-c4ccc5occc5n4)c3)no2)C1=O [Example 66, (R)-3-(3-(3-(Furo[3,2-b]pyridin-5-yl)phenyl)isoxazol-5-yl)-3-hydroxy-1-methylpyrrolidin-2-one] | > 501 | > 501
23 | CN1CC[C@@](O)(c2cc(-c3cccc(-c4ccn5cncc5c4)c3)no2)C1=O [Example 67, (R)-3-Hydroxy-3-(3-(3-(imidazo[1,5-a]pyridin-7-yl)phenyl)isoxazol-5-yl)-1-methylpyrrolidin-2-one] | > 501 | 100 to 500
24 | CN1CC[C@@](O)(c2cc(-c3cccc(-c4ccn5nccc5n4)c3)no2)C1=O [Example 68, (R)-3-Hydroxy-1-methyl-3-(3-(3-(pyrazolo[1,5-a]pyrimidin-5-yl)phenyl)isoxazol-5-yl)pyrrolidin-2-one] | > 501 | > 501
25 | CN1CC[C@@](O)(c2cc(-c3cccc(-c4ccc5ncoc5c4)c3)no2)C1=O [Example 69, (R)-3-(3-(3-(Benzo[d]oxazol-6-yl)phenyl)isoxazol-5-yl)-3-hydroxy-1-methylpyrrolidin-2-one] | > 501 | > 501
26 | CN1CC[C@@](O)(c2cc(-c3cccc(-c4cn5ccnc5cn4)c3)no2)C1=O [Example 70, (R)-3-Hydroxy-3-(3-(3-(imidazo[1,2-a]pyrazin-6-yl)phenyl)isoxazol-5-yl)-1-methylpyrrolidin-2-one] | > 501 | > 501
27 | CN1CC[C@@](O)(c2cc(-c3cccc(-c4ccc5nccn5c4)c3)no2)C1=O [Example 71, (R)-3-Hydroxy-3-(3-(3-(imidazo[1,2-a]pyridin-6-yl)phenyl)isoxazol-5-yl)-1-methylpyrrolidin-2-one] | > 501 | > 501
28 | CN1CC[C@@](O)(c2cc(-c3cccc(-c4ncnc5sccc45)c3)no2)C1=O [Example 72, (R)-3-Hydroxy-1-methyl-3-(3-(3-(thieno[2,3-d]pyrimidin-4-yl)phenyl)isoxazol-5-yl)pyrrolidin-2-one] | > 501 | > 501
29 | CCc1c[nH]c2ncnc(-c3cccc(-c4cc([C@]5(O)CCN(C)C5=O)on4)c3)c12 [Example 73, (R)-3-(3-(3-(5-Ethyl-7H-pyrrolo[2,3-d]pyrimidin-4-yl)phenyl)isoxazol-5-yl)-3-hydroxy-1-methylpyrrolidin-2-one] | > 501 | > 501
30 | CN1CC[C@@](O)(c2cc(-c3cccc(-c4ccc5nnc(N)n5c4)c3)no2)C1=O [Example 74, (R)-3-(3-(3-(3-Amino-[1,2,4]triazolo[4,3-a]pyridin-6-yl)phenyl)isoxazol-5-yl)-3-hydroxy-1-methylpyrrolidin-2-one] | > 501 | > 501
